In one assay the test system is Male C56/BL6 mice. In words: Apomorphine induced climbing (AIC) in pretreated male mice. Format: in vivo. The settings on record: for attenuation / blockade of apomorphine induced climbing (AIC): male mice pretreated for 3 consecutive days, estradiol benzoate 0.1, 0.3 and 1 mg/kg, at 24 and 48 hours. An excerpt:
Patients can be evaluated for cognitive diseases or disorders by any of the tests known in the art. Preclinically, animals can be evaluated for blockade/attenuation of symptoms associated with schizophrenia. Positive symptoms in animal models of schizophrenia can be evaluated by measuring changes in the overall level of activity of dopamine (DA) activity with concomitant parallel changes in locomotor activity (Depoortere R et al., 2003 Neuropsychopharmacology 28(11):1889-902), D-amphetamine (AMPH) and phencyclidine (PCP) via induction of model psychosis or locomotor hyperactivity (Freed W J et al., 1984 Neuropharmacology 23(2A):175-81; Sams-Dodd, F. 1998 Neuropsychopharmacology 19(1): 18-25). For example, Depoortere et al. have described tests for evaluating locomotor activity, catalepsy, climbing and stereotypy, which relate to positive symptomology and side effect profile, by characterizing compounds with typical and atypical antipsychotic efficacy (2003). Attenuation in apomorphine-induced climbing, stereotypy and catalepsy (AIC) can be evaluated as described by Fung Y K et al. 1986 Pharmacol Biochem Behav. 1986 24(1):139-41 and Fung, et aL, 1987 Steroids 49(4-5):287-94. Additionally, negative symptoms of schizophrenia can be evaluated by measuring social interaction under the influence of NMDA antagonists such as PCP (Sams-Dodd F 1998).
Male C56/BL6 mice were pretreated with estradiol benzoate 0.1, 0.3 and 1 mg/kg and an estrogen beta agonist, 7-bromo-2-(4-hydroxyphenyl)-1,3-benzoxazol-5-ol for three (3) consecutive days, and then evaluated for locomotor activity, catalepsy, AIC and stereotypy. Estradiol benzoate attenuated AIC at 24 and 48 hours (approximately 55%), while the estrogen beta agonist, 7-bromo-2-(4-hydroxyphenyl)-1,3-benzoxazol-5-ol, outperformed estradiol benzoate by inducing a sixty percent (60%) blockade of AIC in the male mice.

For a further assay, the system named is aged rats (15 months). Description: Mild cognitive impairment model: CREB levels and Novel Object Recognition in aged rats. Format: in vivo. The settings on record: single injection 1 mg/kg 30 minutes prior to testing, compared to young 3 month old rats. As to the method: (§1) Novel Object Recognition is impaired in several disorders of memory including Alzheimer's disease, schizophrenia, mild cognitive impairment (MCI), stroke, amongst others. In rodents, […] is used extensively to examine the effects of drugs on this form of memory. An ERβ agonist, 7-bromo-2-(4-hydroxyphenyl)-1,3-benzoxazol-5-ol, was tested on this form of memory. In the habituation stage (Day 1), the rats, male Long Evans are habituated for 10 minutes each to an arena that contains 2 identical objects (YY). On trial 1 (Day 2), the arena is set up with a different set of identical objects (e.g., BB) and the animals are allowed to spend 5 minutes sniffing each objects. Thirty (30) minutes prior to T1, animals were injected with 7-bromo-2-(4-hydroxyphenyl)-1,3-benzoxazol-5-ol.
cAMP-response-element-binding protein (CREB) is expressed in all cells in the brain and is a member of a family of proteins that function as transcription factors. […] Aged animals show marked decreases in CREB activation and memory; and this decline in cognition in aged rats is a useful model of mild cognitive impairment seen in humans. As such, an ERβ agonist, 7-bromo-2-(4-hydroxyphenyl)-1,3-benzoxazol-5-ol, was tested on this form of recognition memory. […]

In assay [1] the test system is ovariectomized female rats. Description: Working memory, radial arm maze win-shift task. The settings on record: OVX rats; estradiol benzoate 0.02 mg/kg s.c. in oil for 2 days; ERβ and ERα agonists 10 mg/kg for 6 days. It counts as in vivo. The source says: Cognitive symptoms of memory, including those from Alzheimer's disease and stroke, can be evaluated by such models as the Fear Conditioning Paradigm (Gould T J et al., 2002 Behav Pharmacol. 13(4):287-94; Hamm A O et al., 2003 Brain 126(Pt 2):267-75) and Radial Arm Test (Aggleton J P et al., 1996 Behav Brain Res. 19(2):133-46), while spatial reference memory and learning can be evaluated in the Morris watermaze (Bontempi B et al., 1996 Eur J Neurosci. 8(11):2348-60). Additionally, memory and hippocampal hypo-functioning can be assessed by measuring the restoration of synaptic plasticity in ovariectomized (OVX) female rats. (Day and Good, 2005 Jan., Neurobiol Learn Mem., 83(1): 13-21). Further, changes in attention function because of schizophrenia can be examined by the five (5) Choice Serial Reaction Time Test (5CSRT) (see Muir J L, et al., 1995 Psychopharmacology (Berl) 118(1): 82-92; Robbins et al., 1998 Ann N Y Acad Sci. 846:222-37).
Female rats were habituated to a water deprivation schedule and to the radial maze for at least one week prior to acquisition. The rats were ovariectomized six to eight (6-8) weeks before testing. Subjects were then treated with either estradiol benzoate (0.02 mg/kg), the ERfl agonist, 7-bromo-2-(4-hydroxyphenyl)-1,3-benzoxazol-5-ol, or an ERα agonist. […]

Another assay relates to male Long Evans rats. In words: Novel Object Recognition. Format: in vivo. Particulars: 0.5 mg/kg injected 30 minutes prior to T1; Trial 2 48 hours after Day 2. As to the method:
as §1

Assay [2] deals with young men diagnosed with severe schizophrenia. Particulars: 33 young men, small doses for two weeks; cited from earlier work.
The next assay concerns hippocampal CA1 region. In words: Synaptic plasticity (LTD/LTP) in the hippocampal CA1 region after ovariectomy. Particulars: chronic replacement, injection every 48 hours over 5 weeks. Format: in vivo, rats. The source says: In Experiment 1, ovariectomy carried out either five (5) days or five (5) weeks before testing impaired the induction of long-term depression (LTD), but not long-term potentiation (LTP). […] The findings are discussed with reference to (1) the contribution of Ca^2+ regulated synaptic signaling pathways in the CA1 region to estradiol modulation of LTP and LTD and (2) the potential functional significance of ovariectomy-induced changes in synaptic plasticity for learning and memory processes. […] Restoration of impaired synaptic plasticity of ovariectomized female rats following estrogen treatment can be evaluated by the protocol used by Day and Good, January 2005, Neurobiol Learn Mem., 83(1): 13-21.

In another assay the test system is βERKO female mice. Description: Phencyclidine (PCP) induced locomotor activity (LMA) during PCP withdrawal. Format: in vivo. The settings on record: 0.3 mg/kg on day 5, sub-effective PCP dose after 4 day withdrawal. Here is the method:
Animals were treated for five (5) days with PCP. Following this period, the animals were given a 4 day withdrawal period. One group received 0.3mg/kg estradiol benzoate on day 5. […] Thus, the classic estrogen agonist, estradiol benzoate, effectively blocks the effects of PCP on LMA, with other ERβ agonists likely to behave similarly.

In the next assay the test system is male mice. Particulars: cited from earlier work.

Take `Oc1ccc(-c2nc3cc(O)cc(Br)c3o2)cc1` [7-bromo-2-(4-hydroxyphenyl)-1,3-benzoxazol-5-ol]: the “blockade of AIC compared with estrogen treatment (FIG. 1)” value in the assay with Male C56/BL6 mice (3 days of treatment) was “more profound blockade of AIC”. Also, in the assay on Male C56/BL6 mice, the “attenuation / blockade of apomorphine induced climbing (AIC)” value is reported as 60%. Further, in the assay on aged rats (15 months), the CREB levels result was “restored the CREB levels” and the “memory in the NOR method” value is “increased memory”. Besides, the “working memory in the radial arm maze” value in assay [1] is recorded as “improved working memory”. In addition, the “time investigating the novel object versus the familiar object in Trial 2” value with male Long Evans rats is given as “significantly improved”.

Turning to `C[C@]12CC[C@@H]3c4ccc(O)cc4CC[C@H]3[C@@H]1CC[C@@H]2O` [17β-estradiol], the hallucinations and delusions entry in assay [2] is “significant decline in hallucinations and delusions”. In addition, in the assay on hippocampal CA1 region, the “induction of LTP” value was “no effect on the induction of LTP” and the “magnitude of paired-pulse induced LTD in the CA1 region” value is on record as “enhanced the magnitude of paired-pulse induced LTD”.

Take `C[C@]12CC[C@@H]3c4ccc(OC(=O)c5ccccc5)cc4CC[C@H]3[C@@H]1CC[C@@H]2O` [estradiol benzoate]: the “attenuation / blockade of apomorphine induced climbing (AIC)” value with Male C56/BL6 mice is “approximately 55%”. In the assay on βERKO female mice, the “effect on PCP induced LMA” value is given as “successfully blocked the effect of PCP induced LMA”. Moreover, the “effect on apomorphine induced climbing” value in the assay on male mice is “attenuate apomorphine induced climbing”. Moreover, in assay [1], the “working memory in the radial arm maze” value was “improved working memory”.

These data come from patent US20060135574A1, “Novel uses for estrogen beta agonists” (Wyeth, priority 2004, published 2006).
